Data set [1] in a line: Protective activity against Daboia russellii venom-induced mortality by measuring venom LD50 in Swiss albino mouse at 100 mmol, iv preincubated with venom for 1 hr followed by administration to mouse measured after 24 hrs (reference value: 2.28 ug). Format: functional, Daboia russelii.
Data set [2] can be described thus: Protective activity against Daboia russellii venom-induced mortality in Swiss albino mouse at 100 mmol, iv preincubated with venom for 1 hr followed by administration to mouse measured after 24 hrs relative to untreated control. Type of data set: functional, Daboia russelii.
Data set [3] can be described thus: Protective activity against Naja kaouthia venom-induced mortality in Swiss albino mouse at 100 mmol, iv by measuring venom LD50 preincubated with venom for 1 hr followed by administration to mouse measured after 24 hrs (reference value: 2.82 ug). Type of data set: functional.
The nature of data set [4]: Protective activity against Naja kaouthia venom-induced mortality in Swiss albino mouse at 100 mmol, iv preincubated with venom for 1 hr followed by administration to mouse measured after 24 hrs relative to untreated control. Format: functional.
Data set [5] is described as follows: Protective activity against Daboia russellii venom-induced hemorrhage in intradermally dosed Swiss albino mouse at 100 mmol assessed as hemorhagic lesion by measuring minimal […] dose preincubated with venom for 1 hr followed by administration to mouse measured after 24 hrs (reference value: 5 ug). Type of data set: functional, Daboia russelii.
Data set [6] can be described thus: Protective activity against Daboia russellii venom-induced hemorrhage in intradermally dosed Swiss albino mouse at 100 mmol assessed as hemorhagic lesion preincubated with venom for 1 hr followed by administration to mouse measured after 24 hrs relative to untreated control. Type of data set: functional, Daboia russelii.
Data set [7] can be described thus: Lipophilicity, log P of compound. The conditions noted are these: octanol/water; read-out: logP. Format: physicochemical.
The nature of data set [8]: (§1) Protective activity against Daboia russellii venom-induced mortality in Swiss albino mouse at 100 mmol, iv by measuring venom LD50 administered immediately after venom injection measured after 24 hrs (reference value: 2.28ug). Format: functional, Daboia russelii.
The nature of data set [9]: Protective activity against Daboia russellii venom-induced mortality in Swiss albino mouse at 100 mmol, iv administered immediately after venom injection measured after 24 hrs relative to untreated control. Type of data set: functional, Daboia russelii.
The nature of data set [10]: Protective activity against Naja kaouthia venom-induced mortality in Swiss albino mouse at 100 mmol, iv by measuring venom LD50 administered immediately after venom injection measured after 24 hrs (reference value: 2.82 ug). Format: functional.
A short description of data set [11]: Protective activity against Naja kaouthia venom-induced mortality in Swiss albino mouse at 100 mmol, iv administered immediately after venom injection measured after 24 hrs relative to untreated control. Type of data set: functional.
Data set [12] is described as follows: (§2) Protective activity against Daboia russellii venom-induced hemorrhage in Swiss albino mouse at 100 mmol, iv assessed as hemorhagic lesion by measuring […] administered immediately after venom injection measured after 24 hrs (Rvb =5 ug). Type of data set: functional, Daboia russelii.
Data set [13] in a line: Protective activity against Daboia russellii venom-induced hemorrhage in Swiss albino mouse at 100 mmol, iv assessed as hemorhagic lesion administered immediately after venom injection measured after 24 hrs relative to untreated control. Format: functional, Daboia russelii.
Data set [14] concerns Daboia russelii. Described as §1. Format: functional.
For data set [15], the system named is Daboia russelii. Described as §2. Type of data set: functional.
The subject of data set [16] is Daboia russelii.
Data set [17] has as its system Naja kaouthia.
Data set [18] concerns Naja kaouthia. The source holds these as a separate data set.
Description: Protective activity against Naja kaouthia venom-induced mortality in Swiss albino mouse at 100 mmol, iv by measuring venom LD50 administered immediately after venom injection measured after 24 hrs (Rvb = 2.82 ug)

The source made the active and inactive calls. The calls are words filed in the database; no cut-off is given here.

Here are results for 16 compounds from ChEMBL document CHEMBL3785074, “Molecular modeling and snake venom phospholipase A2 inhibition by phenolic compounds: Structure-activity relationship” (Eur J Med Chem, 2016).

Turning to `COc1cc(C=O)ccc1O` [VANILLIN], the LD50 in [1] turned out to be 22 µg; in [3], 9 µg; in [8], 150 µg; in data set [10], 10 µg. Besides, the “fold change (FC)” value in data set [2] was 9.8; in data set [4], 3.2; in [6], 4; in data set [9] it was 3.75; in [11], 2; in data set [13], 1. In addition, the MHC in [5] came to 20 µg; in data set [12] it was 5 µg. Besides, the log partition coefficient (logP) in [7] was determined as 1.87.

For `CCOc1ccc(C=O)c(O)c1`, the MHC in [5] was 5 µg. The “fold change (FC)” value in data set [6] was 1. Moreover, the LD50 result with Daboia russelii [14], with Daboia russelii [16], with Naja kaouthia [17] and in the data set on Naja kaouthia [18] was “inactive” each time. In addition, in the data set with Daboia russelii [15], the MHC result was “inactive”.

On to `COc1ccc(O)c(C=O)c1`, for which the LD50 in [1] is 11 µg; in data set [3] it was 6 µg; in [8], 100 µg; in [10] it was 8 µg. Moreover, the “fold change (FC)” value was found to be 4.9 in [2]; 2.1 in [4]; 4 in data set [6]; 2.5 in data set [9]; 1.6 in data set [11]; 2 in [13]. Further, the values for the MHC in data set [5] and in data set [12] were 20 µg and 10 µg, respectively. Further, the log partition coefficient (logP) in data set [7] was 1.93.

On to `COc1ccccc1` [ANISOLE], for which the MHC in data set [5] stood at 10 µg; in data set [12] it was 5 µg. Besides, the “fold change (FC)” value in data set [6] stood at 2; in [13], 1. For the same compound, the logP in data set [7] is 1.44. Besides, the LD50 result in the data set on Daboia russelii [14], with Daboia russelii [16], in the data set with Naja kaouthia [17] and in the data set with Naja kaouthia [18] was “inactive” throughout.

For the compound `COc1ccc(/C=N/O)c(OC)c1`, the LD50 in [1] was 6 µg; in [3], 3 µg; in data set [8], 50 µg. Further, the “fold change (FC)” value in data set [2] was 2.6; in data set [4] it was 1; in data set [6] it was 1; in data set [9], 1.25. Moreover, the MHC in data set [5] amounted to 5 µg. In the data set with Daboia russelii [15], the MHC result is “inactive”. For the same compound, the LD50 entry with Naja kaouthia [18] is “inactive”.

Take `COc1ccc(C=O)cc1`: the MHC in data set [5] came to 15 µg; in data set [12] it was 5 µg. In addition, the “fold change (FC)” value in data set [6] is recorded as 3; in data set [13], 1. Moreover, in data set [7], the log partition coefficient (logP) came out at 1.19. Besides, the LD50 result in the data set with Daboia russelii [14], in the data set on Daboia russelii [16], with Naja kaouthia [17] and with Naja kaouthia [18] was “inactive” throughout.

For `CCCOc1ccc(C=O)c(O)c1`, in data set [5], the MHC turned out to be 5 µg. In data set [6], the “fold change (FC)” value was 1. Also, the LD50 entry with Daboia russelii [14], in the data set with Daboia russelii [16], in the data set on Naja kaouthia [17] and in the data set with Naja kaouthia [18] was “inactive” in each case. The MHC entry with Daboia russelii [15] was “inactive”.

For the compound `CCCCCCCOc1ccc(C=O)c(O)c1`, the LD50 stood at 6 µg in [1] and 3 µg in data set [3]. In addition, the “fold change (FC)” value turned out to be 2.6 in data set [2], 1 in [4] and 1 in [6]. The MHC in [5] is 5 µg. For the same compound, the LD50 result in the data set with Daboia russelii [14] and in the data set with Naja kaouthia [18] was “inactive” throughout. Moreover, in the data set on Daboia russelii [15], the MHC entry is “inactive”.

For the compound `COc1cccc(OC)c1` [1,3-DIMETHOXYBENZENE], the MHC in [5] was 10 µg; in [12], 5 µg. Also, the “fold change (FC)” value in data set [6] is recorded as 2; in data set [13] it was 1. In addition, the log partition coefficient (logP) in data set [7] is 1.44. The LD50 entry with Daboia russelii [14], in the data set with Daboia russelii [16], in the data set on Naja kaouthia [17] and with Naja kaouthia [18] was “inactive” throughout.

In the case of `Oc1cccc(O)c1` [RESORCINOL], the MHC in [5] and in data set [12] was 10 µg in each case. For the same compound, the “fold change (FC)” value in data set [6] and in data set [13] was 2 each time. Further, in data set [7], the log partition coefficient (logP) turned out to be 1.48. In addition, the LD50 entry with Daboia russelii [14], with Daboia russelii [16], in the data set with Naja kaouthia [17] and with Naja kaouthia [18] was “inactive” each time.

As to `COc1ccccc1OC` [1,2-DIMETHOXYBENZENE], the MHC in [5] was 10 µg; in data set [12], 5 µg. Also, the “fold change (FC)” value is listed as 2 in data set [6] and 1 in data set [13]. Moreover, in data set [7], the logP was 1.44. Further, the LD50 result in the data set on Daboia russelii [14], in the data set on Daboia russelii [16], in the data set with Naja kaouthia [17] and in the data set with Naja kaouthia [18] was “inactive” throughout.

Turning to `Oc1ccc(O)cc1` [HYDROQUINONE], the MHC in data set [5] amounted to 20 µg; in data set [12], 10 µg. Besides, the “fold change (FC)” value in [6] came out at 4; in [13], 2. Moreover, the logP in [7] was determined as 1.48. Also, the LD50 entry in the data set on Daboia russelii [14], in the data set on Daboia russelii [16], with Naja kaouthia [17] and in the data set with Naja kaouthia [18] was “inactive” in each case.

On to `COc1ccc(OC)cc1` [1,4-DIMETHOXYBENZENE], for which the figures for the MHC in data set [5] and in data set [12] were 10 µg and 5 µg, respectively. Also, the figures for the “fold change (FC)” value in data set [6] and in data set [13] were 2 and 1, respectively. Also, the logP in data set [7] was 1.47. Besides, the LD50 result in the data set on Daboia russelii [14], in the data set on Daboia russelii [16], in the data set on Naja kaouthia [17] and in the data set on Naja kaouthia [18] was “inactive” throughout.

For `Oc1ccccc1` [PHENOL], the MHC stood at 10 µg in data set [5] and 5 µg in data set [12]. The “fold change (FC)” value in data set [6] is recorded as 2; in data set [13], 1. In addition, the logP in data set [7] was 1.76. Also, the LD50 entry in the data set on Daboia russelii [14], in the data set with Daboia russelii [16], with Naja kaouthia [17] and with Naja kaouthia [18] was “inactive” each time.

As for `Oc1ccccc1O` [CATECHOL], the MHC in data set [5] was determined as 25 µg; in data set [12], 15 µg. Besides, the “fold change (FC)” value in data set [6] amounted to 5; in [13] it was 3. Also, the logP in [7] is 1.48. Besides, the LD50 entry in the data set on Daboia russelii [14], in the data set with Daboia russelii [16], in the data set with Naja kaouthia [17] and in the data set with Naja kaouthia [18] was “inactive” in each case.

For `CCOc1cc(C=O)ccc1O` [ETHYL VANILLIN], the LD50 in data set [1] came to 11 µg; in [3] it was 3 µg; in data set [8], 100 µg; in data set [10] it was 10 µg. Further, the “fold change (FC)” value was 4.9 in data set [2]; 1 in [4]; 3 in [6]; 2.5 in data set [9]; 2 in data set [11]; 2 in data set [13]. In addition, the MHC in data set [5] was 15 µg; in data set [12] it was 10 µg. The lipophilicity (logP) in data set [7] stood at 1.81.
